Measurements reported in patent US7691969B2, “Isolated GRP94 ligand binding domain polypeptide and nucleic acid encoding same, crystalline form of same, and screening methods employing same” (Duke University, priority 2001, dated 2010).
pKd: −log10 of the molar value.

How the values were obtained:
[1] = target: T1, GRP94 (Sus scrofa, UniProt Q29092); test: Identification of the bis-ANS binding site (photo-crosslinking, Edman sequencing); parameters: species or system porcine
T1 construct: GRP94 was purified from porcine pancreas rough microsomes; from tissue; host or cells: porcine pancreas rough microsomes (lumenal contents)
T1 sequence (Q29092 22-804): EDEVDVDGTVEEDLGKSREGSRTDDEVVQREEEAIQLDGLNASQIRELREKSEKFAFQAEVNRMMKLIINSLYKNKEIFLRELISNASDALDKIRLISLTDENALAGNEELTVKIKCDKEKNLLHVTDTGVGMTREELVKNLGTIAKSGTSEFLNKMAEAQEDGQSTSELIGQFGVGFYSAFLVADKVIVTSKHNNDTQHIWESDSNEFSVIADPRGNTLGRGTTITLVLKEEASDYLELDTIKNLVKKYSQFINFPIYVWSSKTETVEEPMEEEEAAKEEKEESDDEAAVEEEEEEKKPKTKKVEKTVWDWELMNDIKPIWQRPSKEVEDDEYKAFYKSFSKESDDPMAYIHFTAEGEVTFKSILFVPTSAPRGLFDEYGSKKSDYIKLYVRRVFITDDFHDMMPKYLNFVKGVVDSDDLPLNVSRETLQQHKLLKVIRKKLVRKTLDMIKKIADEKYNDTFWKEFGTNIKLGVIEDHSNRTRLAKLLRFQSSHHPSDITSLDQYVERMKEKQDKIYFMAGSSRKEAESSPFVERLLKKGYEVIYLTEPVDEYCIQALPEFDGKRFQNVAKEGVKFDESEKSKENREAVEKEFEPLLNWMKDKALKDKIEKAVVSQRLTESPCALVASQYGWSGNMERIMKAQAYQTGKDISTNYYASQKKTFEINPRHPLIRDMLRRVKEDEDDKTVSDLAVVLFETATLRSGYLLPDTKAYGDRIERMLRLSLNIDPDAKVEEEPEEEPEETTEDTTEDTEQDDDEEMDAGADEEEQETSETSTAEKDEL
Experimental: Identification of the bis-ANS binding site. […] Following photocrosslinking, GRP94-bis-ANS complexes were digested with trypsin for one hour at 37° C.
As described in Materials and Methods, GRP94 was combined with an excess of bis-ANS and photo-crosslinked on ice for 15 minutes. GRP94 was subsequently digested with trypsin, the fluorescent peptides purified by HPLC, and the sequence of the labeled peptides determined by Edman sequencing.

[2] = target: T1, GRP94; test: Far-UV circular dichroism; assay type: biochemical, porcine; conditions: 1 μM GRP94, 10 μM bis-ANS, 2 h
Experimental: Circular Dichroism Measurements. Far-UV CD spectrometry was performed on an AVIV Associates 62DS™ circular dichroism spectrometer (AVIV Associates of Lakewood, N.J.). Samples were analyzed in a 1 mm path length quartz cuvette at 37° C. GRP94 samples (1 μM) were prepared in standard phosphate buffered saline solution as buffer A produced unacceptable dynode voltages in the relevant region of the spectrum. GRP94 was incubated with 10 µM bis-ANS for 2 hours at 37° C. prior to obtaining spectra. Spectra were recorded from 300 to 195 nm. The α-helical content of GRP94 was calculated from the molar ellipticity at 222 nm. See Myers & Jakoby (1975) J Biol Chem 250:3785-3789.

[3] = target: HSP90 (Homo sapiens, UniProt P07900); test: Conformational analysis by proteolysis (trypsin, SDS-PAGE); assay type: biochemical
[4] = target: T1, GRP94; test: Native blue electrophoresis (BN-PAGE) of oligomeric state; assay type: biochemical, porcine; conditions: ten-fold molar excess of bis-ANS
Experimental: Native Blue Electrophoresis. The oligomeric state of GRP94 was assayed by blue native polyacrylamide gel electrophoresis (BN-PAGE) as described by Schagger et al. (1994) Anal Biochem 217:220-230. GRP94 was either heat shocked or exposed to a 10-fold molar excess of bis-ANS for the indicated times. Samples were then dissolved in 15% glycerol and loaded onto 5-18% gradient gels with 0.02% Coomassie Brilliant Blue in the cathode buffer. Gels were run at 4° C., stained with Coomassie Blue, de-stained and dried.

[5] = target: T1, GRP94; test: Conformational analysis by proteolysis (trypsin, SDS-PAGE); assay type: biochemical, porcine; conditions: 5 μM GRP94, 50 μM bis-ANS, 1 h 37° C.; 0.1% trypsin 30 min
Experimental: Conformational Analysis by Proteolysis. The conformational state of GRP94 was assessed by tryptic digestion of the protein and subsequent SDS-PAGE analysis. […] Samples were then combined with 0.1% trypsin and digested for 30 minutes at 37° C. An equal volume of SDS-PAGE sample buffer was added and the samples were snap frozen in liquid nitrogen. Immediately prior to gel analysis, samples were thawed and boiled for 5 minutes. […] Gels were fixed and stained with Coomassie Blue. For time course experiments, excess free bis-ANS was removed immediately prior to trypsinization by gel filtration on 0.5 ml G-25 SEPHADEX® spin columns.

[6] = target: T1, GRP94; test: Fluorophore binding to native and heat shocked GRP94 (fluorescence emission); parameters: species or system porcine
Text: Fluorophore Binding Reactions.
Fluorescence Measurements. […] All spectra were background corrected.
To characterize the structural basis for the heat shock dependent activation of GRP94 activity, the interaction of polarity-sensitive fluorophores with native and heat shocked GRP94 was examined. The three probes tested, Prodan (6-propionyl-2-(dimethylamino)naphthalene), 8-ANS (1,8-anilinonaphthalenesulfonate) and bis-ANS (bis(1,8-anilino-naphthalenesulfonate) are structurally related probes that bind to hydrophobic sites on proteins and undergo substantial fluorescence spectrum changes upon introduction into nonpolar environments, as discussed by Rosen & Weber (1969) Biochemistry 8:3915-3920; Weber & Farris (1979) Biochemistry 18:3075-3078; Takashi et al. (1977) Proc Natl Acad Sci USA 74:2334-2338; Shi et al. (1994) Biochemistry 33:7536-7546. The following experimental protocol was utilized. GRP94 was warmed to 37° C. and either maintained at 37° C. or heat shocked for 15 minutes at 50° C., followed by incubation at 37° C. Subsequently, probe stocks were added to the GRP94 stocks and emission spectra recorded after 30 min at 37° C.
Under the experimental conditions used in this series of experiments, bis-ANS binding to GRP94 was near maximal at a 20-fold molar excess of GRP94 monomer over bis-ANS, with half maximal binding observed at 110 nM GRP94 (FIG. 2B).

[7] = target: T1, GRP94; test: Citrate synthase thermal aggregation assay (chaperone activity); assay type: biochemical, porcine; conditions: 1 μM GRP94 preincubated 2 h with 10 μM bis-ANS; 0.15 μM citrate synthase, 43° C.
Experimental: Citrate Synthase Aggregation Assays. The effects of GRP94 on the thermal aggregation of citrate synthase were assayed by the methods described by Buchner et al. (1998) Methods Enzymol 290:323-338. Samples containing no protein, or GRP94 (1 μM), were incubated in 40 mM HEPES pH 7.5 for two hours at 37° C. with either 0.2% DMF or 10 µM bis-ANS. The samples were then warmed to 43° C. for five minutes and placed in a spectrofluorometer thermostatted at 43° C. Citrate synthase was then added to 0.15 μM final concentration and the thermal aggregation of the enzyme followed by light scattering. Excitation and emission wavelengths were both 500 nm with 2 nm slit width. The time course of citrate synthase aggregation was followed for 1000 seconds.
To determine if the bis-ANS-dependent conformational changes in GRP94 were of functional significance, the molecular chaperone activities of native, heat shocked and bis-ANS treated GRP94 were evaluated in a thermal aggregation assay, as described by Jakob et al. (1995) J Biol Chem 270:7288-7294 and Buchner et al. (1998) Methods Enzymol 290:323-338. […] Following experimental treatment of the GRP94, reactions were equilibrated at 43° C., citrate synthase then added and aggregation, as represented by light scattering, was measured.

[8] = target: T1, GRP94; test: [3H]-NECA competitive displacement assay; assay type: binding, porcine
Experimental: Where indicated, binding reactions were performed in either buffer C (10 mM Tris, pH 7.5, 50 mM KCl, 5 mM MgCl2, 2 mM DTT, 0.01% NP-40, 20 mM Na2MoO4) or 50 mM Tris, pH 7.5, 10 mM Mg(OAc)2. […] Vacuum filtration was performed with an Amersham Pharmacia Biotech (Piscataway, N.J.) vacuum filtration manifold.
All binding reactions were performed in triplicate and corrected by subtraction of background values, determined in binding reactions lacking GRP94.

[9] = target: HSP90 (Saccharomyces cerevisiae, UniProt P02829); conditions: Prodromou et al. (1997); cited from earlier work
Chain of HSP90 (Saccharomyces cerevisiae, UniProt P02829) (P02829 whole entry): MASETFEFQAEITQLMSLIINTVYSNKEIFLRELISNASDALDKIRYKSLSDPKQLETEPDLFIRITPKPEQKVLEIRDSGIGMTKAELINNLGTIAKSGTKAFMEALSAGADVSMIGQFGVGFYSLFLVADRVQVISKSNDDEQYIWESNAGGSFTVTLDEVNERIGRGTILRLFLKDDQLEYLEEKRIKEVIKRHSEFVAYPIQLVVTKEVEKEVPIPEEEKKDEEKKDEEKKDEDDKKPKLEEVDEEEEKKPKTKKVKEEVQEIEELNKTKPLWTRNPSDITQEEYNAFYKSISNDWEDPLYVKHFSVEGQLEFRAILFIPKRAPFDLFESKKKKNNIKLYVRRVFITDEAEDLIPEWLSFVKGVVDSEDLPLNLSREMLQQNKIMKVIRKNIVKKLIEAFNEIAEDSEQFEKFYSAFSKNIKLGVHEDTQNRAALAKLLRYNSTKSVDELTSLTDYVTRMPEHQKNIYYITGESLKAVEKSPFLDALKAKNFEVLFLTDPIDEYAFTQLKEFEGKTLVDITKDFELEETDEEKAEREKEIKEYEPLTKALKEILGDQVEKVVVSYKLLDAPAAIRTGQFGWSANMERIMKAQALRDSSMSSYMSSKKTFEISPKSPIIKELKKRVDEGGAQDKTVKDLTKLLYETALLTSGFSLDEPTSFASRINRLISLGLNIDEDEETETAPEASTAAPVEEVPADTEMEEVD

[10] = target: T1, GRP94; test: Tryptophan fluorescence (tertiary conformational state); assay type: biochemical, porcine; conditions: 50 μM NECA, 50 μM geldanamycin, 2.5 mM ATP or 2.5 mM ADP; 1 h 37° C.
Experimental: Tryptophan Fluorescence. Tryptophan fluorescence measurements were conducted in a FLUOROMAX™ spectrofluorometer (Spex Industries, Inc. of Edison, N.J.) with the slit widths set to 1 nm for both excitation and emission. […] All spectra were corrected by subtraction of buffer or buffer plus ligand samples. GRP94 (50 μg/ml) was incubated in buffer A supplemented with 10 mM Mg(OAc)2 and the following concentrations of ligands for 1 hour at 37° C. […] Samples were then cooled to room temperature, transferred to a quartz cuvette, and the spectra collected.

[11] = target: T1, GRP94; test: ATP binding assay ([32P]ATP, nitrocellulose filtration); parameters: species or system porcine; conditions: 50 μM [32P]ATP, 1 h on ice
Experimental: (§1) ATP Binding Assay. Six μg of GRP94, BiP, and Hsp90 was incubated with 50 μM […] (1000 μCi/μmol) (Amersham Pharmacia Biotech of Piscataway, N.J.) in buffer B on ice for 1 hour. Nitrocellulose filters (BA85) (Schleicher & Schuell of Keene, N.H.) were individually wet in buffer B before use, and bound versus free [^32P]-ATP was separated by vacuum filtration. Filters were washed with 3×2 mL of ice cold buffer B, placed in 5 mL of scintillation fluid, vortexed, and counted.

[12] = system: BiP; test: as above; parameters: species or system porcine; conditions: 50 μM [32P]ATP, 1 h on ice
Experimental: as §1

Compound	site of bis-ANS binding to GRP94 (labeled peptide) [1]	secondary structure of GRP94 (CD spectra) [2]	trypsin proteolysis pattern of HSP90 [3]	quaternary structure (oligomerization) of GRP94 [4]	trypsin proteolysis pattern of GRP94 [5]	agonist activity for GRP94 activation [6]	fluorophore binding to native versus heat shocked GRP94 (fluorescence emission) ([6]; 0.5 μM GRP94, 5 μM probe, 37° C.)	pKd ([6]; fixed 50 nM bis-ANS, increasing GRP94, excitation 393 nm, emission 475 nm, read-out: half maximal binding of bis-ANS to heat shocked GRP94 (GRP94 concentration))	molar excess of GRP94 monomer over bis-ANS at near maximal binding ([6]; heat shocked GRP94)	thermal aggregation of citrate synthase in presence of treated GRP94 [7]	molar excess required for 50% inhibition of [3H]-NECA binding ([8]; 20 nM [3H]-NECA)	effect of excess Mg2+ on binding to GRP94 ([8]; 10 mM Mg(OAc)2 versus nominal magnesium)	nucleoside base specificity: binding to GRP94 by [3H]-NECA displacement ([8]; competitors at 50 μM)	relative affinities for GRP94 in presence of Mg2+ ([8]; excess Mg2+)	efficacy of competing NECA binding, ATP relative to ADP ([8]; no excess Mg2+)	pKd [9]	change of GRP94 tryptophan fluorescence [10]	ATP binding [11]	ATP binding [12]
4,4′-dianilino-1,1-binaphthyl-5,5-disulfonic acid [bis-ANS]	mapped to residues 271-281 of the N-terminal domain of GRP94	does not alter GRP94 secondary structure	Essentially identical proteolysis patterns were observed following either heat shock or bis-ANS treatment of HSP90	induces changes in the quaternary structure of GRP94 that mimic those seen upon heat shock	substantially reduced recovery of the prominent proteolysis products	both an agonist for GRP94 activation as well as an indicator for the relative state of activation	a level of fluorophore binding similar to that seen with heat shocked GRP94 was observed	6.96	20 -fold	no thermal aggregation of citrate synthase was detectable	–	–	–	–	–	–	–	–	–
Nc1ncnc2c1ncn2[C@@H]1O[C@H](COP(=O)(O)OP(=O)(O)OP(=O)(O)O)[C@@H](O)[C@H]1O [ATP]	–	–	–	–	–	–	–	–	–	–	~1000 -fold molar excess	markedly stimulated the binding of ATP, ADP and AMP	GRP94 could bind both ATP and deoxyATP	nearly identical relative affinities	eight-fold higher efficacy than ADP	3.88	the tryptophan fluorescence was decreased	no ATP binding was observed to Hsp90 or GRP94	displayed the expected ATP binding activity
